# Reference: patent publication US11304974B2, “Nanosystems comprising silver and antibiotics and their use for the treatment of bacterial infections” (priority 2017, dated 2022)
# Read-outs that look alike come from different tables or passages of the source.
# How the values were obtained:
# [1] = system: S. epidermidis Se-1 (strain 14); test: Checkerboard synergy test collargol-vancomycin (Example 5); conditions: Staphylococcus epidermidis, read-out: MIC (product alone, Checkerboard test)
# Method: (§3) To determine the existence of synergistic activity between collargol and vancomycin, a checkerboard test using plates having a “U”-shaped bottom (TPP) of 96 wells was used. Double subinhibitory serial dilutions of the two antimicrobials were prepared, so that the concentration of collargol decreased vertically (up-down) and the concentration of vancomycin decreased horizontally (left-right).
# (§4) To quantify the synergistic activity of the two combined compounds, the Index fractional inhibitory concentration (IFIC) parameter was used. This index relates MIC of the antimicrobial 1 with the antimicrobial 2 alone and in combination, according to the following formula:
# (§5) It is considered that there is synergistic effect if the IFIC value is <0.5.
# (§6) The procedure was as follows: • Preparation of fresh cultures of each of the strains on blood agar (37° C., 24 h). […] The well wherein the minimum value of IFIC is obtained is chosen.
# [2] = system: S. aureus Sa-10 (strain 9); test: as above; conditions: Staphylococcus aureus, read-out: MIC (product alone, Checkerboard test)
# Method: as §3, §4, §5, §6
# [3] = system: S. aureus Sa-11 (strain 10); test: as above; conditions: Staphylococcus aureus, read-out: MIC (product alone, Checkerboard test)
# Method: as §3, §4, §5, §6
# [4] = system: S. aureus Sa-12 (strain 11); test: as above; conditions: Staphylococcus aureus, read-out: MIC (product alone, Checkerboard test)
# Method: as §3, §4, §5, §6
# [5] = system: S. aureus Sa-3 (strain 3); test: as above; conditions: Staphylococcus aureus, read-out: MIC (product alone, Checkerboard test)
# Method: as §3, §4, §5, §6
# [6] = system: S. aureus Sa-12 (strain 11); test: Epsilometry E-test, absence and presence of silver (Example 5); format: cell-based; conditions: Staphylococcus aureus
# Method: (§1) In order to evaluate the synergy of collargol-antibiotics an epsilometry E-test was carried out. Said test is based on the agar diffusion method and relates to using a strip with a predefined steady gradient of 15 concentrations of the antibiotic being tested. After strain growth, an elliptical inhibition halo, being the MIC the antibiotic concentration corresponding to the cutting point.
# (§2) It was performed for the antibiotics vancomycin, linezolid and tedizolid, in absence and presence of silver (½ and 1/10 MIC).
# [7] = system: S. aureus Sa-13 (strain 12); test: as above; format: cell-based; conditions: Staphylococcus aureus
# Method: as §1, §2
# [8] = system: S. aureus Sa-11 (strain 10); test: as above; format: cell-based; conditions: Staphylococcus aureus
# Method: as §1, §2
# [9] = system: S.aureus ATCC 700698 Sa-SARM (strain 15); test: as above; format: cell-based; conditions: Staphylococcus aureus
# Method: as §1, §2
# [10] = system: S. aureus Sa-14 (strain 13); test: as above; format: cell-based; conditions: Staphylococcus aureus, strain 13 (S. aureus Sa-14)
# Method: as §1, §2
# [11] = system: S. aureus Sa-3 (strain 3); test: as above; format: cell-based; conditions: Staphylococcus aureus
# Method: as §1, §2
# [12] = system: S. aureus Sa-9 (strain 8); test: as above; format: cell-based; conditions: Staphylococcus aureus
# Method: as §1, §2
# [13] = system: S. aureus Sa-10 (strain 9); test: as above; format: cell-based; conditions: Staphylococcus aureus
# Method: as §1, §2
# [14] = system: S. epidermidis Se-1 (strain 14); test: as above; format: cell-based; conditions: Staphylococcus epidermidis
# Method: as §1, §2
# [15] = system: S. aureus Sa-1 (strain 1); test: as above; format: cell-based; conditions: Staphylococcus aureus
# Method: as §1, §2
# Gram Positive Bacteria = test: Silver-antibiotics interaction study, MicroScan (Example 4); format: cell-based, S. aureus; conditions: subinhibitory colloidal silver (½ or 1/10 MIC)
# Method: The effect of subinhibitory concentrations of colloidal silver (namely, ½ and 1/10 dilution of the MIC obtained in Example 3) in the presence of different types of antibiotics was tested.
# For this, an automated equipment MicroScan AutoScan 4 (Siemens) was used, using Gram negative (Becman Coulter NM37) and Gram positive (Becman Coulter PM28) cards.
# Each of these broths served as inoculum for the cards with antibiotics (for each strain, thus 3 cards were prepared). • Incubating the plates with antibiotics (in presence and absence of silver) at 37° C. for 24 h. • Reading the cards by use of LabPro software, and interpretation of the obtained values of MIC (determine if the silver reduces the initial MCI of each antibiotic).
# [16] = read-out: MIC (E-test) MH (without silver)
# [17] = read-out: MIC (E-test) MH-1/10 MIC
# [18] = read-out: MIC (E-test) MH-½ MIC
structure (smiles),measurement,setting,value
CN[C@H](CC(C)C)C(=O)N[C@H]1C(=O)N[C@@H](CC(N)=O)C(=O)N[C@H]2C(=O)N[C@H]3C(=O)N[C@H](C(=O)N[C@H](C(=O)O)c4cc(O)cc(O)c4-c4cc3ccc4O)[C@H](O)c3ccc(c(Cl)c3)Oc3cc2cc(c3O[C@@H]2O[C@H](CO)[C@@H](O)[C@H](O)[C@H]2O[C@H]2C[C@](C)(N)[C@H](O)[C@H](C)O2)Oc2ccc(cc2Cl)[C@H]1O [Vancomycin],MIC,[1],1 µg/mL
same,MIC,[2],1 µg/mL
same,MIC,[3],1 µg/mL
same,MIC,[4],1 µg/mL
same,MIC,[5],1 µg/mL
same,MIC,[6]; [16],1 µg/mL
same,MIC,[6]; [17],1 µg/mL
same,MIC,[6]; [18],0.5 µg/mL
same,MIC,[7]; [16],0.5 µg/mL
same,MIC,[7]; [17],0.5 µg/mL
same,MIC,[7]; [18],0.38 µg/mL
same,MIC,[8]; [16],0.5 µg/mL
same,MIC,[8]; [17],0.38 µg/mL
same,MIC,[8]; [18],0.25 µg/mL
same,MIC,"[9]; ATCC700698, read-out: MIC (E-test) MH (without silver)",1.5 µg/mL
same,MIC,"[9]; ATCC700698, read-out: MIC (E-test) MH-1/10 MIC",1 µg/mL
same,MIC,"[9]; ATCC700698, read-out: MIC (E-test) MH-½ MIC",1 µg/mL
same,MIC,"[10]; MH agar with 1/10 MIC of colargol, read-out: MIC (E-test) MH-1/10 MIC",0.38 µg/mL
same,MIC,"[10]; MH agar with ½ MIC of colargol, read-out: MIC (E-test) MH-½ MIC",0.25 µg/mL
same,MIC,"[10]; MH agar without silver, read-out: MIC (E-test) MH (without silver)",0.38 µg/mL
same,MIC,[11]; [16],0.75 µg/mL
same,MIC,[11]; [17],0.75 µg/mL
same,MIC,[11]; [18],0.38 µg/mL
same,MIC,[12]; [16],1 µg/mL
same,MIC,[12]; [17],1 µg/mL
same,MIC,[12]; [18],0.75 µg/mL
same,MIC,[13]; [16],1 µg/mL
same,MIC,[13]; [17],1 µg/mL
same,MIC,[13]; [18],0.38 µg/mL
same,MIC,[14]; [16],0.75 µg/mL
same,MIC,[14]; [17],0.5 µg/mL
same,MIC,[14]; [18],0.38 µg/mL
same,MIC,[15]; [16],0.5 µg/mL
same,MIC,[15]; [17],0.5 µg/mL
same,MIC,[15]; [18],0.38 µg/mL
same,Effect of silver on the strain's sensitivity to the antibiotic,Gram Positive Bacteria,improved sensitivity
